In brackets after ≈: the same amount, converted by molar mass.
Assays:
Format in all cases: functional
[1] = tested on: Staphylococcus aureus; assay: In vitro antibacterial activity against the gram-positive bacteria, penicillin resistant Staphylococcus aureus (2672)
[2] = tested on: Streptococcus pneumoniae; assay: In vitro antibacterial activity against the gram-positive bacteria, penicillin sensitive Streptococcus pneumoniae (3272)
[3] = tested on: Staphylococcus aureus; assay: In vitro antibacterial activity against the gram-positive bacteria, penicillin sensitive Staphylococcus aureus (3849)
[4] = tested on: Staphylococcus aureus; assay: In vitro antibacterial activity against the gram-positive bacteria, penicillin resistant Staphylococcus aureus (2619)
[5] = tested on: Staphylococcus aureus; assay: In vitro antibacterial activity against the gram-positive bacteria, penicillin sensitive Staphylococcus aureus (663E)
[6] = tested on: Streptococcus pneumoniae; assay: In vitro antibacterial activity against the gram-positive bacteria, penicillin resistant Streptococcus pneumoniae (4629)
[7] = tested on: Staphylococcus aureus; assay: In vitro antibacterial activity against the gram-positive bacteria, penicillin sensitive Staphylococcus aureus (3072)
[8] = tested on: Streptococcus pneumoniae; assay: In vitro antibacterial activity against the gram-positive bacteria, penicillin resistant Streptococcus pneumoniae (4636)
[9] = tested on: Streptococcus pyogenes; assay: In vitro antibacterial activity against the gram-positive bacteria, erythromycin resistant Streptococcus pyogenes
[10] = tested on: Streptococcus pneumoniae; assay: In vitro antibacterial activity against the gram-positive bacteria, penicillin resistant Streptococcus pneumoniae (4630)
[11] = tested on: Streptococcus pneumoniae; assay: In vitro antibacterial activity against the gram-positive bacteria, penicillin sensitive Streptococcus pneumoniae (3273)
[12] = tested on: Streptococcus pneumoniae; assay: In vitro antibacterial activity against the gram-positive bacteria, penicillin resistant Streptococcus pneumoniae (4635)
[13] = tested on: Staphylococcus aureus; assay: In vitro antibacterial activity against the gram-positive bacteria, penicillin resistant Staphylococcus aureus (853)
[14] = tested on: Streptococcus pneumoniae; assay: In vitro antibacterial activity against the gram-positive bacteria, penicillin sensitive Streptococcus pneumoniae (3512)

Compound	MIC [1]	MIC [2]	MIC [3]	MIC [4]	MIC [5]	MIC [6]	MIC [7]	MIC [8]	MIC [9]	MIC [10]	MIC [11]	MIC [12]	MIC [13]	MIC [14]
CC(=O)OCC1=C(C(=O)O)N2C(=O)[C@@H](NC(=O)CN(OCc3cccc(Cl)c3)C(=O)c3ccccc3)C2SC1 (stereo partly drawn)	4 µg/mL (≈ 6.97 µM)	0.06 µg/mL (≈ 0.105 µM)	0.5 µg/mL (≈ 0.871 µM)	1 µg/mL (≈ 1.74 µM)	0.5 µg/mL (≈ 0.871 µM)	8 µg/mL (≈ 13.9 µM)	0.5 µg/mL (≈ 0.871 µM)	2 µg/mL (≈ 3.48 µM)	0.25 µg/mL (≈ 0.436 µM)	8 µg/mL (≈ 13.9 µM)	0.12 µg/mL (≈ 0.209 µM)	1 µg/mL (≈ 1.74 µM)	0.5 µg/mL (≈ 0.871 µM)	0.06 µg/mL (≈ 0.105 µM)
CC(=O)OCC1=C(C(=O)O)N2C(=O)[C@@H](NC(=O)CN(OCc3ccccc3)C(=O)Nc3ccccc3)C2SC1 (stereo partly drawn)	4 µg/mL (≈ 7.21 µM)	0.12 µg/mL (≈ 0.216 µM)	0.5 µg/mL (≈ 0.902 µM)	2 µg/mL (≈ 3.61 µM)	0.5 µg/mL (≈ 0.902 µM)	8 µg/mL (≈ 14.4 µM)	1 µg/mL (≈ 1.8 µM)	16 µg/mL (≈ 28.9 µM)	0.12 µg/mL (≈ 0.216 µM)	8 µg/mL (≈ 14.4 µM)	0.25 µg/mL (≈ 0.451 µM)	8 µg/mL (≈ 14.4 µM)	1 µg/mL (≈ 1.8 µM)	0.25 µg/mL (≈ 0.451 µM)
CC(=O)OCC1=C(C(=O)O)N2C(=O)[C@@H](NC(=O)CN(OCc3cccc(Cl)c3)C(=O)Nc3ccccc3)C2SC1 (stereo partly drawn)	2 µg/mL (≈ 3.4 µM)	0.06 µg/mL (≈ 0.102 µM)	0.5 µg/mL (≈ 0.849 µM)	1 µg/mL (≈ 1.7 µM)	0.5 µg/mL (≈ 0.849 µM)	4 µg/mL (≈ 6.79 µM)	0.5 µg/mL (≈ 0.849 µM)	4 µg/mL (≈ 6.79 µM)	0.12 µg/mL (≈ 0.204 µM)	4 µg/mL (≈ 6.79 µM)	0.12 µg/mL (≈ 0.204 µM)	2 µg/mL (≈ 3.4 µM)	1 µg/mL (≈ 1.7 µM)	0.12 µg/mL (≈ 0.204 µM)
CC(=O)OCC1=C(C(=O)O)N2C(=O)[C@@H](NC(=O)CN(OCc3ccccc3)C(=O)NCc3ccccc3)C2SC1 (stereo partly drawn)	2 µg/mL (≈ 3.52 µM)	0.12 µg/mL (≈ 0.211 µM)	1 µg/mL (≈ 1.76 µM)	1 µg/mL (≈ 1.76 µM)	0.5 µg/mL (≈ 0.879 µM)	16 µg/mL (≈ 28.1 µM)	1 µg/mL (≈ 1.76 µM)	32 µg/mL (≈ 56.3 µM)	0.25 µg/mL (≈ 0.44 µM)	16 µg/mL (≈ 28.1 µM)	0.5 µg/mL (≈ 0.879 µM)	4 µg/mL (≈ 7.03 µM)	1 µg/mL (≈ 1.76 µM)	0.25 µg/mL (≈ 0.44 µM)
CC(=O)OCC1=C(C(=O)O)N2C(=O)[C@@H](NC(=O)CN(OCc3ccccc3Cl)C(=O)c3ccccc3)C2SC1 (stereo partly drawn)	8 µg/mL (≈ 13.9 µM)	0.25 µg/mL (≈ 0.436 µM)	0.5 µg/mL (≈ 0.871 µM)	4 µg/mL (≈ 6.97 µM)	1 µg/mL (≈ 1.74 µM)	16 µg/mL (≈ 27.9 µM)	1 µg/mL (≈ 1.74 µM)	32 µg/mL (≈ 55.7 µM)	0.5 µg/mL (≈ 0.871 µM)	16 µg/mL (≈ 27.9 µM)	0.25 µg/mL (≈ 0.436 µM)	16 µg/mL (≈ 27.9 µM)	1 µg/mL (≈ 1.74 µM)	0.25 µg/mL (≈ 0.436 µM)
CC(=O)OCC1=C(C(=O)O)N2C(=O)[C@@H](NC(=O)CN(OCc3ccccc3Cl)C(=O)Nc3ccccc3)C2SC1 (stereo partly drawn)	2 µg/mL (≈ 3.4 µM)	0.25 µg/mL (≈ 0.424 µM)	0.5 µg/mL (≈ 0.849 µM)	1 µg/mL (≈ 1.7 µM)	0.5 µg/mL (≈ 0.849 µM)	8 µg/mL (≈ 13.6 µM)	0.5 µg/mL (≈ 0.849 µM)	8 µg/mL (≈ 13.6 µM)	0.12 µg/mL (≈ 0.204 µM)	8 µg/mL (≈ 13.6 µM)	0.25 µg/mL (≈ 0.424 µM)	4 µg/mL (≈ 6.79 µM)	2 µg/mL (≈ 3.4 µM)	0.12 µg/mL (≈ 0.204 µM)
CC(=O)OCC1=C(C(=O)O)N2C(=O)[C@@H](NC(=O)CN(OCc3ccc(Cl)cc3)C(=O)Nc3ccccc3)C2SC1 (stereo partly drawn)	4 µg/mL (≈ 6.79 µM)	0.12 µg/mL (≈ 0.204 µM)	0.5 µg/mL (≈ 0.849 µM)	1 µg/mL (≈ 1.7 µM)	0.5 µg/mL (≈ 0.849 µM)	8 µg/mL (≈ 13.6 µM)	0.5 µg/mL (≈ 0.849 µM)	16 µg/mL (≈ 27.2 µM)	0.06 µg/mL (≈ 0.102 µM)	4 µg/mL (≈ 6.79 µM)	0.25 µg/mL (≈ 0.424 µM)	4 µg/mL (≈ 6.79 µM)	1 µg/mL (≈ 1.7 µM)	0.06 µg/mL (≈ 0.102 µM)
CC(=O)OCC1=C(C(=O)O)N2C(=O)[C@@H](NC(=O)CN(OCc3cccc(Cl)c3)C(=O)NCc3ccccc3)C2SC1 (stereo partly drawn)	2 µg/mL (≈ 3.32 µM)	0.25 µg/mL (≈ 0.415 µM)	0.5 µg/mL (≈ 0.829 µM)	2 µg/mL (≈ 3.32 µM)	1 µg/mL (≈ 1.66 µM)	8 µg/mL (≈ 13.3 µM)	1 µg/mL (≈ 1.66 µM)	32 µg/mL (≈ 53.1 µM)	0.25 µg/mL (≈ 0.415 µM)	8 µg/mL (≈ 13.3 µM)	0.5 µg/mL (≈ 0.829 µM)	4 µg/mL (≈ 6.63 µM)	1 µg/mL (≈ 1.66 µM)	0.25 µg/mL (≈ 0.415 µM)
N[C@@H](C(=O)N[C@@H]1C(=O)N2C(C(=O)O)=C(Cl)CS[C@H]12)c1ccccc1 [CEFACLOR ANHYDROUS]	64 µg/mL (≈ 174 µM)	1 µg/mL (≈ 2.72 µM)	1 µg/mL (≈ 2.72 µM)	16 µg/mL (≈ 43.5 µM)	1 µg/mL (≈ 2.72 µM)	32 µg/mL (≈ 87 µM)	4 µg/mL (≈ 10.9 µM)	16 µg/mL (≈ 43.5 µM)	0.5 µg/mL (≈ 1.36 µM)	16 µg/mL (≈ 43.5 µM)	0.5 µg/mL (≈ 1.36 µM)	16 µg/mL (≈ 43.5 µM)	64 µg/mL (≈ 174 µM)	1 µg/mL (≈ 2.72 µM)
CO/N=C(\C(=O)N[C@@H]1C(=O)N2C(C(=O)[O-])=C(C[n+]3cccc4c3CCC4)CS[C@H]12)c1csc(N)n1 [CEFPIROME]	2 µg/mL (≈ 3.89 µM)	0.06 µg/mL (≈ 0.117 µM)	1 µg/mL (≈ 1.94 µM)	2 µg/mL (≈ 3.89 µM)	1 µg/mL (≈ 1.94 µM)	2 µg/mL (≈ 3.89 µM)	1 µg/mL (≈ 1.94 µM)	< 0.5 µg/mL	0.03 µg/mL (≈ 0.0583 µM)	1 µg/mL (≈ 1.94 µM)	0.06 µg/mL (≈ 0.117 µM)	< 0.5 µg/mL	2 µg/mL (≈ 3.89 µM)	0.06 µg/mL (≈ 0.117 µM)
CO/N=C(\C(=O)N[C@@H]1C(=O)N2C(C(=O)O)=C(CSc3nc(=O)c(O)nn3C)CS[C@H]12)c1csc(N)n1 [CEFTRIAXONE]	4 µg/mL (≈ 7.21 µM)	0.03 µg/mL (≈ 0.0541 µM)	2 µg/mL (≈ 3.61 µM)	4 µg/mL (≈ 7.21 µM)	2 µg/mL (≈ 3.61 µM)	4 µg/mL (≈ 7.21 µM)	4 µg/mL (≈ 7.21 µM)	1 µg/mL (≈ 1.8 µM)	0.06 µg/mL (≈ 0.108 µM)	2 µg/mL (≈ 3.61 µM)	0.03 µg/mL (≈ 0.0541 µM)	1 µg/mL (≈ 1.8 µM)	4 µg/mL (≈ 7.21 µM)	0.03 µg/mL (≈ 0.0541 µM)
CO/N=C(\C(=O)N[C@@H]1C(=O)N2C(C(=O)O)=C(COC(N)=O)CS[C@H]12)c1ccco1 [CEFUROXIME]	2 µg/mL (≈ 4.71 µM)	0.06 µg/mL (≈ 0.141 µM)	1 µg/mL (≈ 2.36 µM)	2 µg/mL (≈ 4.71 µM)	1 µg/mL (≈ 2.36 µM)	32 µg/mL (≈ 75.4 µM)	2 µg/mL (≈ 4.71 µM)	16 µg/mL (≈ 37.7 µM)	0.06 µg/mL (≈ 0.141 µM)	16 µg/mL (≈ 37.7 µM)	0.25 µg/mL (≈ 0.589 µM)	32 µg/mL (≈ 75.4 µM)	2 µg/mL (≈ 4.71 µM)	0.06 µg/mL (≈ 0.141 µM)

Source: ChEMBL document CHEMBL1132087, “New N-substituted 7-aminocephalosporanic acid derivatives as potential agents against Streptococcus pneumoniae. Synthesis and in vitro activity” (1999)
